Source: patent publication US20250268948A1, “COMPOSITIONS AND METHODS FOR TREATING POST ACUTE SEQUELAE OF SARS-COV-2 INFECTION (LONG COVID)” (priority 2022, published 2025)
Read-outs that look alike come from different tables or passages of the source.

Assays:
human MSCs = experiment: Stem cell migration assay (percent closure of cell-free zone); details: for effect on MSC migration induced by curcumin and quercetin / effect on MSC migration induced by curcumin and resveratrol: 20 micromolar AMD3100 / 15 micromolar GM6001; for effect on MSC migration induced by curcumin and quercetin: FIG. 14; for effect on MSC migration induced by curcumin and resveratrol: FIG. 15; for EC50: Homo sapiens
Procedure: FIG. 1 is a microphotograph depicting cell migration using fluorescent readout and cell tracker green as a fluorescent marker of human UC-MSCs. […] The EC50 was determined as a measure of effectiveness of activating agents. […] An initial analysis of the cell free zone using Image J software was used to screen concentrations of activating agents for dose-response determination in further experiments.
The cell migration assays described above were set up as follows: One million cells/cell line were resuspended in 10 mL MSC-GRO™ serum free, quiescent medium (Vitro Biopharma Cat. No. SC00B17) containing […] mitomycin C (Sigma, Cat. No. M4287) to inhibit proliferation and incubated for 2 hours at room temperature with end-to-end agitation at 7 RPM. In some experiments, curcumin was used at 1 μM to block proliferation. Cells were centrifuged (450×g) for 7 minutes, washed with phosphate buffered saline (PBS) and then resuspended in 1 mL MSC-GRO™ low serum, complete 20 medium (Vitro Biopharma Cat. No. SC00B1) and plated at 25,000 cells/well in black 96 well, TC-coated cell culture plates, (ThermoScientific, Cat. No. 165305) containing cell seed-stoppers (Platypus, Cat. No. CMAUFL4) to form a cell free zone at the center of the well and incubated in 5% CO2, 1% O2, 94% N2 at 37° C. in a humidified chamber for 24 hrs. Plates used for culture of NSCs, were first treated with 10 μg/mL fibronectin (Sigma, Cat. No. F0556) for 2 hours at 37° C. Following washout with PBS (3×), cell seed stoppers were inserted, NSCs were plated at 25,000/well and incubated in 5% CO2, 1% O2, 94% N2 at 37° C. in a humidified chamber for 48 hrs. For studies of the effects of CXCR4 and MMP-9 inhibition, following 24 hours of cell culture, appropriate wells were dosed with 15 μM GM6001 and 20 μM AMD3100 for 6 hours. Cells were washed once with PBS then incubated in serum free, MSC-GRO™ (Vitro Biopharma Cat. No. SC00B17) containing 5 μM Cell Tracker Green CMFDA (Molecular Probes, Cat. No. C7025) at 37° C. for 30 minutes. The wells were then washed with serum free, MSC-Gro™ (Vitro Biopharma Cat. No. SC00B17) and incubated for 30 minutes at 37° C. Cells were washed once with PBS and this was replaced with MSC-GRO™ serum free, quiescent medium (Vitro Biopharma Cat. No. SC00B1I7) containing different concentrations of activating agents. […] A TOPSEAL™ (PerkinElmer, Cat. No. 6050195) covered the plate for live-cell imaging in a BioTek Cytation3 Imaging Reader. […] The gas phase throughout the acquisition of kinetic data was 5% O2, 5% CO2 with the balance nitrogen maintained by a BioTek CO2/O2 gas controller. Images were saved as TIFF files to calculate percent closure using imaging data.

Hsp70 = experiment: qPCR gene expression analysis in human MSCs; type: cell-based; details: for Hsp70 expression increase: 250 μM VPA, 500 nM curcumin, up to 2 weeks, FIG. 13
Procedure: (§1) Gene expression was quantified by determining the amount of gene-specific DNA/total cDNA. Data are mean+/−S.D. of 4 replicates.
(§2) Native human umbilical cord-derived MSCs (Vitro Biopharma Cat. No. SCOOA1) were expanded from cryopreservation in a T-25 TC-coated flasks (BD Falcon, Cat. No. 353108) in MSC-GRO™ low serum, complete medium (Vitro Biopharma Cat. No. SC00B1). Cells were subcultured and counted on a Beckerman-Coulter Z2 particle counter (range 10 μm-30 μm). […] The MSCs were treated continuously for up to 2 weeks. Cultures were fed every three days. Cells were harvested using ACCUTASE™ (Innovative Cell Technologies Inc., Cat No AT-104) and centrifuged (450×g) for 7 minutes. Cell supernatant was aspirated off and cells were resuspended in 1 mL PBS and counted on a Beckerman-Coulter Z2 particle counter (range 10 μm-30 μm).
(§3) Total RNA was extracted using RNeasy Mini Kit (Qiagen Cat. No. 74104). RNA was quantified using an absorbance measurement at 260 nm. RNA was converted to cDNA using Quantitect Reverse Transcription Kit (Qiagen Cat. No. 205310) in a thermocycler. RNA was incubated in the DNA elimination reaction for 2 minutes at 42° C. then incubated in the reverse-transcription master mix for 15 minutes at 42° C. Immediately after, it was incubated at 95° C. for 3 minutes for inactivation. cDNA was sent to an outside lab (CU-Anschutz Metabolic Laboratory) for q-PCR to detect relative or absolute gene expression levels. cDNA was diluted 1:5 and iTaq Universal Supermix fluorescent probe (BioRad Cat. No. 172-5120) used to detect the threshold cycle (Ct) during PCR. Dilution factors and cDNA concentrations were calculated into recorded values then normalized to untreated hMSCs (Vitro Biopharma Cat. No. SC00A1).

CXCR4 = experiment: qPCR gene expression analysis in human MSCs; type: cell-based; details: for CXCR4 expression increase: 250 μM VPA, 500 nM curcumin, up to 2 weeks, FIG. 13
Procedure: as §1, §2, §3

FGF-21 = experiment: qPCR gene expression analysis in human MSCs; type: cell-based; details: for FGF-21 expression increase: 250 μM VPA, 500 nM curcumin, up to 2 weeks, FIG. 13
Procedure: (§4) Beta actin was measured as a house-keeping gene. […] Gene expression was quantified by determining the amount of gene-specific DNA/total cDNA. Data are mean+/−SD of 4 replicates.
(§5) Native human umbilical cord-derived MSCs (Vitro Biopharma Cat. No. SC00A1) were expanded from cryopreservation in a T-25 TC-coated flasks (BD Falcon, Cat. No. 353108) in MSC-GRO™ low serum, complete medium (Vitro Biopharma Cat. No. SC00BI). Cells were subcultured and counted on a Beckerman-Coulter Z2 particle counter (range 10 μm-30 μm). Cells were plated at 10,000/cm^2 a TC-coated Greiner Bio-One T75 flask and maintained in MSC-GRO™ serum free, complete medium (Vitro Biopharma Cat. No. SC00B3) in a reduced 02 environment (1% O2, 5% CO2, 94% N2) at 37° C. in a humidified chamber. The MSCs were treated continuously for up to 2 weeks. Cultures were fed every three days. Cells were harvested using ACCUTASE™ (Innovative Cell Technologies Inc., Cat No AT-104) and centrifuged (450×g) for 7 minutes. Cell supernatant was aspirated off and cells were resuspended in 1 mL PBS and counted on a Beckerman-Coulter Z2 particle counter (range 10 μm-30 μm). Total RNA was extracted using RNeasy Mini Kit (Qiagen Cat. No. 74104). RNA was quantified using an absorbance measurement at 260 nm. RNA was converted to cDNA using Quantitect Reverse Transcription Kit (Qiagen Cat. No. 205310) in a thermocycler. RNA was incubated in the gDNA elimination reaction for 2 minutes at 42° C. then incubated in the reverse-transcription master mix for 15 minutes at 42° C. Immediately after, it was incubated at 95° C. for 3 minutes for inactivation. cDNA was sent to an outside lab (CU-Anschutz Metabolic Laboratory) for q-PCR to detect relative or absolute gene expression levels. cDNA was diluted 1:5 and iTaq Universal Supermix fluorescent probe (BioRad Cat. No. 172-5120) used to detect the threshold cycle (Ct) during PCR. Dilution factors and cDNA concentrations were calculated into recorded values then normalized to untreated hMSCs (Vitro Biopharma Cat. No. SC00A1).
as §1, §2, §3

SIRT-1 = experiment: qPCR gene expression analysis in human MSCs; type: cell-based; details: up to 2 weeks; for SIRT-1 expression increase: 250 μM VPA, 500 nM curcumin, FIG. 13
Procedure: as §4, §5, §1, §2, §3

Oct 3/4 = experiment: qPCR gene expression analysis in human MSCs; type: cell-based; details: for Oct 3/4 expression increase: 250 μM VPA, 500 nM curcumin, compared to beta-actin, FIG. 13
Procedure: as §4, §5, §1, §2, §3

MSCs = experiment: Cell-based proliferation assay (Presto Blue); details: Homo sapiens
Procedure: (§6) The effects of fibroblast growth factor 2 (FGF-2), lithium, and VPA on stem cell proliferation were then investigated, using an assay based on Presto Blue, a fluorescent marker of cellular reduction. FIG. 8 is a line graph representation illustrating proliferation of different cell lines induced by increasing concentrations of FGF-b (FGF-2) after a 5 day exposure. Relative fluorescent units were measured using a FITC filter on a Modulus Microplate Reader and plotted as a function of FGF-2. The data were modeled by sigmoidal curve fitting to calculate EC50 values. […] Proliferation of these mesenchymal cells was stimulated by recombinant human FGF-2 with EC50 values in the range of 3 ng/mL to 6 ng/mL with maximal proliferative responses at about 10 ng/mL.

human fibroblast = details: read-out: EC50, human fibroblast migration induced by substance P, prior study; suspension culture system; Parenti et al. 1996; cited from earlier work
[1] = system: CAFs, primary fibroblasts and MSCs; experiment: Cell-based proliferation assay (Presto Blue); parameters: species or system human; details: 5 day exposure; FIG. 8
Procedure: as §6

[2] = curcumin at 500 nM, statistically significant

## c1cc(CN2CCCNCCNCCCNCC2)ccc1CN1CCCNCCNCCCNCC1 [AMD3100]
Human MSCs; 20 μM AMD3100, CXCR-4 inhibitor, FIG. 7
  effect on VPA-induced CB-MSC migration: blocked the VPA-induced CB-MSC migration
Human MSCs
  effect on MSC migration induced by curcumin and quercetin: blocked MSC migration
  effect on MSC migration induced by curcumin and resveratrol: blocked MSC migration

## CNC(=O)[C@H](Cc1c[nH]c2ccccc12)NC(=O)[C@@H](CC(=O)NO)CC(C)C [GM6001]
Human MSCs; 15 μM GM6001, MMP-9 inhibitor, FIG. 7
  effect on lithium induced CB-MSC migration: blocked lithium induced CB-MSCs
Human MSCs
  effect on MSC migration induced by curcumin and quercetin: blocked MSC migration
  effect on MSC migration induced by curcumin and resveratrol: blocked MSC migration

## CCCC(=O)[O-].[Na+] [Na butyrate]
Hsp70
  Hsp70 expression increase: lower levels
CXCR4
  CXCR4 expression increase: lower levels
FGF-21
  FGF-21 expression increase: lower levels
SIRT-1
  SIRT-1 expression increase: significantly less effective
Oct 3/4; up to 2 weeks
  Oct 3/4 expression increase: less expression activation

## CC(/C=C/C(=O)NO)=C\[C@@H](C)C(=O)c1ccc(N(C)C)cc1 [TSA]
Hsp70
  Hsp70 expression increase: lower levels
CXCR4
  CXCR4 expression increase: lower levels
FGF-21
  FGF-21 expression increase: lower levels
SIRT-1
  SIRT-1 expression increase: significantly less effective
Oct 3/4; up to 2 weeks
  Oct 3/4 expression increase: less expression activation

## CCCC(CCC)C(=O)O [VPA, valproic acid]
SIRT-1; 31.25 μM VPA, 200 μM lithium, FIG. 11
  SIRT-1 expression increase vs untreated MSC: ~300 fold
Oct 3/4; 31.25 μM VPA, 200 μM lithium, up to 2 weeks, FIG. 11
  Oct 3/4 expression increase vs untreated human MSCs: about 20 fold
Oct 3/4; up to 2 weeks
  Oct 3/4 expression increase: about 20 fold
Human MSCs; read-out: EC50, migration, increasing VPA in 200 μM lithium, MSCs, FIG. 6
  EC50: 36 µM
Human MSCs; VPA alone, FIG. 5
  concentration of maximum closure: 100 µM
MSCs; 120 h, increasing VPA in 200 μM lithium, MSCs, 5 day exposure, FIG. 10, read-out: EC50, proliferation
  EC50: 39 µM
MSCs; in the presence of 200 μM lithium, MSCs and NSCs, range over migration and proliferation assays, read-out: VPA concentration 50% effective in inducing cell proliferation and migration
  EC50: 35 to 39 µM
MSCs; in the presence of 200 μM lithium, MSCs and NSCs, read-out: VPA concentration 50% effective in inducing cell proliferation and migration, mean
  EC50: 37 µM

## COc1cc(/C=C/C(=O)CC(=O)/C=C/c2ccc(O)c(OC)c2)ccc1O [curcumin]
Hsp70; [2]
  Hsp70 expression increase compared to untreated cells: at least 20 fold
CXCR4; [2]
  CXCR-4 expression increase compared to untreated cells: at least 20 fold
FGF-21; [2]
  FGF-21 expression increase compared to untreated cells: at least 20 fold
Oct 3/4; up to 2 weeks
  Oct 3/4 expression increase: about 20 fold
Oct 3/4; [2]
  Oct 3/4 expression increase compared to untreated cells: at least 10 fold
Human MSCs; 36-hour run, FIG. 4
  concentration at which curcumin blocked migration by apparent toxicity: greater than 1 μM
  estimated LD50 (apparent toxicity, reduced cell number): 3 µM
Human MSCs; 36 h, read-out: apparent EC50, curcumin-induced migration
  EC50: 0.25 µM

## CSCC[C@H](NC(=O)[C@H](CC(C)C)NC(=O)CNC(=O)[C@H](Cc1ccccc1)NC(=O)[C@H](Cc1ccccc1)NC(=O)[C@H](CCC(N)=O)NC(=O)[C@H](CCC(N)=O)NC(=O)[C@@H]1CCCN1C(=O)[C@H](CCCCN)NC(=O)[C@@H]1CCCN1C(=O)[C@@H](N)CCCNC(=N)N)C(N)=O [substance P]
Human fibroblast
  EC50: 0.0022 µM
Human MSCs; 3.7 nM substance P, 24 hours, human UC-MSCs, FIG. 1
  MSC migration into cell-free zone: induced MSC migration into the cell-free center of the well
Human MSCs; CB-MSCs, 0 to 18.5 nM, 24-hour live cell analysis, FIG. 2
  migration (percent closure) dose-response: migration increased in a dose-dependent manner

## CCCCC(=O)O [valeric acid]
Hsp70
  Hsp70 expression increase: lower levels
CXCR4
  CXCR4 expression increase: lower levels
FGF-21
  FGF-21 expression increase: lower levels
SIRT-1
  SIRT-1 expression increase: significantly less effective
Oct 3/4; up to 2 weeks
  Oct 3/4 expression increase: less expression activation

## FGF-2: recombinant human fibroblast growth factor 2
[1]
  concentration of maximal proliferative responses: about 10 ng/mL
